Each structure is given as a SMILES string. Bounds are passed on as bounds.

This assay in a line: Inhibition of recombinant human IL-17A/IL-17AR protein-protein interaction using TMB substrate compound added on IL17A precoated plate and followed by IL-17AR addition by ELISA. Background: In an ELISA, binding on a coated surface is turned into a signal by an enzyme label.
What is called IC50 is the concentration that gives 50% inhibition. Take `CO[C@]1(C)C[C@H](O[C@H]2[C@H](C)[C@@H](O[C@@H]3O[C@H](C)C[C@H](N(C)C)[C@H]3O)[C@](C)(O)C[C@@H](C)CN(C)C(=O)C[C@@H](Cc3ccc(NC(=O)[C@H](Cc4ccccc4Cl)NC(=O)NCc4cccc(F)c4)cc3)NC(=O)[C@H](C(C)C)NC(=O)[C@@H]2C)O[C@@H](C)[C@@H]1O`: the 50% inhibitory concentration (IC50) came out at 48 nM.
Then `CO[C@]1(C)C[C@H](O[C@H]2[C@H](C)[C@@H](O[C@@H]3O[C@H](C)C[C@H](N(C)C)[C@H]3O)[C@](C)(O)C[C@@H](C)CN(C)C(=O)C[C@@H](Cc3ccc(NC(=O)[C@H](Cc4ccccc4Cl)NC(=O)Cc4cccc(C)c4)cc3)NC(=O)[C@H](C(C)C)NC(=O)[C@@H]2C)O[C@@H](C)[C@@H]1O`, with 77 nM; and `CO[C@]1(C)C[C@H](O[C@H]2[C@H](C)[C@@H](O[C@@H]3O[C@H](C)C[C@H](N(C)C)[C@H]3O)[C@](C)(O)C[C@@H](C)CN(C)C(=O)C[C@@H](Cc3ccc(NC(=O)[C@H](Cc4ccccc4Cl)NC(=O)Cc4cccc(S(C)(=O)=O)c4)cc3)NC(=O)[C@H](C(C)C)NC(=O)[C@@H]2C)O[C@@H](C)[C@@H]1O`, with 1600 nM; and `CO[C@]1(C)C[C@H](O[C@H]2[C@H](C)[C@@H](O[C@@H]3O[C@H](C)C[C@H](N(C)C)[C@H]3O)[C@](C)(O)C[C@@H](C)CN(C)C(=O)C[C@@H](Cc3ccc(NC(=O)[C@H](Cc4ccccc4Cl)NC(=O)Cc4ccccc4C)cc3)NC(=O)[C@H](C(C)C)NC(=O)[C@@H]2C)O[C@@H](C)[C@@H]1O`, with 116 nM.
Then `CO[C@]1(C)C[C@H](O[C@H]2[C@H](C)[C@@H](O[C@@H]3O[C@H](C)C[C@H](N(C)C)[C@H]3O)[C@](C)(O)C[C@@H](C)CN(C)C(=O)C[C@@H](Cc3ccc(NC(=O)[C@H](Cc4ccccc4Cl)NC(=O)Cc4cccc(C#N)c4)cc3)NC(=O)[C@H](C(C)C)NC(=O)[C@@H]2C)O[C@@H](C)[C@@H]1O`, with 471 nM; and `CO[C@]1(C)C[C@H](O[C@H]2[C@H](C)[C@@H](O[C@@H]3O[C@H](C)C[C@H](N(C)C)[C@H]3O)[C@](C)(O)C[C@@H](C)CN(C)C(=O)C[C@@H](Cc3ccc(NC(=O)[C@H](Cc4ccccc4Cl)NC(=O)NCc4ccccc4F)cc3)NC(=O)[C@H](C(C)C)NC(=O)[C@@H]2C)O[C@@H](C)[C@@H]1O`, with 346 nM; and `CO[C@]1(C)C[C@H](O[C@H]2[C@H](C)[C@@H](O[C@@H]3O[C@H](C)C[C@H](N(C)C)[C@H]3O)[C@](C)(O)C[C@@H](C)CN(C)C(=O)C[C@@H](Cc3ccc(NC(=O)[C@H](Cc4ccccc4Cl)NC(=O)c4ccccc4)cc3)NC(=O)[C@H](C(C)C)NC(=O)[C@@H]2C)O[C@@H](C)[C@@H]1O`, with 320 nM.
Then `CO[C@]1(C)C[C@H](O[C@H]2[C@H](C)[C@@H](O[C@@H]3O[C@H](C)C[C@H](N(C)C)[C@H]3O)[C@](C)(O)C[C@@H](C)CN(C)C(=O)C[C@@H](Cc3ccc(NC(=O)[C@H](Cc4ccccc4Cl)NC(=O)Cc4ccccc4)cc3)NC(=O)[C@H](C(C)C)CNC(=O)[C@@H]2C)O[C@@H](C)[C@@H]1O`, with 2900 nM; and `CO[C@]1(C)C[C@H](O[C@H]2[C@H](C)[C@@H](O[C@@H]3O[C@H](C)C[C@H](N(C)C)[C@H]3O)[C@](C)(O)C[C@@H](C)CN(C)C(=O)C[C@H](Cc3ccc(NC(=O)[C@H](Cc4ccccc4Cl)NC(=O)Cc4ccccc4)cc3)NC(=O)[C@H](C(C)C)NC(=O)[C@@H]2C)O[C@@H](C)[C@@H]1O`, with above 30000 nM; and `CO[C@]1(C)C[C@H](O[C@H]2[C@H](C)[C@@H](O[C@@H]3O[C@H](C)C[C@H](N(C)C)[C@H]3O)[C@](C)(O)C[C@@H](C)CN(C)C(=O)C[C@@H](Cc3ccc(NC(=O)[C@H](Cc4c(Cl)cccc4Cl)NC(=O)Cc4ccccc4)cc3)NC(=O)[C@H](C(C)C)NC(=O)[C@@H]2C)O[C@@H](C)[C@@H]1O`, with 166 nM.
As to `CO[C@]1(C)C[C@H](O[C@H]2[C@H](C)[C@@H](O[C@@H]3O[C@H](C)C[C@H](N(C)C)[C@H]3O)[C@](C)(O)C[C@@H](C)CN(C)C(=O)[C@@H](C(C)C)NC(=O)C[C@H](Cc3ccc(NC(=O)[C@H](Cc4ccccc4Cl)NC(=O)Cc4ccccc4)cc3)NC(=O)[C@@H]2C)O[C@@H](C)[C@@H]1O`, the IC50 turned out to be 256 nM.
Regarding `CO[C@]1(C)C[C@H](O[C@H]2[C@H](C)[C@@H](O[C@@H]3O[C@H](C)C[C@H](N(C)C)[C@H]3O)[C@](C)(O)C[C@@H](C)CN(C)C(=O)C[C@@H](Cc3ccc(NC(=O)[C@H](Cc4ccccc4Cl)NC(=O)Cc4ccccc4)cc3)NC(=O)[C@@H](C)NC(=O)[C@@H]2C)O[C@@H](C)[C@@H]1O`, the IC50 is above 30000 nM.
Next, `CO[C@]1(C)C[C@H](O[C@H]2[C@H](C)[C@@H](O[C@@H]3O[C@H](C)C[C@H](N(C)C)[C@H]3O)[C@](C)(O)C[C@@H](C)CN(C)C(=O)C[C@@H](Cc3ccc(NC(=O)[C@H](Cc4ccccc4Cl)NC(=O)Cc4ccccc4)cc3)NC(=O)[C@H](CC(C)C)NC(=O)[C@@H]2C)O[C@@H](C)[C@@H]1O`: 12600 nM; `CO[C@]1(C)C[C@H](O[C@H]2[C@H](C)[C@@H](O[C@@H]3O[C@H](C)C[C@H](N(C)C)[C@H]3O)[C@](C)(O)C[C@@H](C)CN(C)C(=O)C[C@@H](Cc3ccc(NC(=O)[C@H](Cc4ccccc4Cl)NC(=O)Cc4ccccc4)cc3)NC(=O)[C@H](C(C)(C)C)NC(=O)[C@@H]2C)O[C@@H](C)[C@@H]1O`: 1600 nM.
Next, `CO[C@]1(C)C[C@H](O[C@H]2[C@H](C)[C@@H](O[C@@H]3O[C@H](C)C[C@H](N(C)C)[C@H]3O)[C@](C)(O)C[C@@H](C)CN(C)C(=O)C[C@@H](Cc3ccc(NC(=O)[C@H](Cc4ccccc4F)NC(=O)Cc4ccccc4)cc3)NC(=O)[C@H](C(C)C)NC(=O)[C@@H]2C)O[C@@H](C)[C@@H]1O`: 315 nM.
Next, `CO[C@]1(C)C[C@H](O[C@H]2[C@H](C)[C@@H](O[C@@H]3O[C@H](C)C[C@H](N(C)C)[C@H]3O)[C@](C)(O)C[C@@H](C)CN(C)C(=O)C[C@@H](Cc3ccc(NC(=O)[C@H](Cc4ccccc4Cl)NC(=O)Cc4ccccc4)cc3)NC(=O)[C@H](C)NC(=O)[C@@H]2C)O[C@@H](C)[C@@H]1O`: 15000 nM; `COc1ccc(C2(C(=O)N[C@@H](Cc3ccccc3Cl)C(=O)Nc3ccc(C[C@@H]4CC(=O)N(C)C[C@H](C)C[C@@](C)(O)[C@H](O[C@@H]5O[C@H](C)C[C@H](N(C)C)[C@H]5O)[C@@H](C)[C@H](O[C@H]5C[C@@](C)(OC)[C@@H](O)[C@H](C)O5)[C@@H](C)C(=O)N[C@@H](C(C)C)C(=O)N4)cc3)CC2)cc1`: 5390 nM.
Regarding `CO[C@]1(C)C[C@H](O[C@H]2[C@H](C)[C@@H](O[C@@H]3O[C@H](C)C[C@H](N(C)C)[C@H]3O)[C@](C)(O)C[C@@H](C)CN(C)C(=O)C[C@@H](Cc3ccc(NC(=O)[C@H](Cc4ccccc4Cl)NC(=O)Nc4ccc(F)cc4)cc3)NC(=O)[C@H](C(C)C)NC(=O)[C@@H]2C)O[C@@H](C)[C@@H]1O`, the IC50 came to 323 nM.
Turning to `CO[C@]1(C)C[C@H](O[C@H]2[C@H](C)[C@@H](O[C@@H]3O[C@H](C)C[C@H](N(C)C)[C@H]3O)[C@](C)(O)C[C@@H](C)CN(C)C(=O)C[C@@H](Cc3ccc(NC(=O)[C@H](Cc4ccccc4Cl)NC(=O)C(C)c4ccccc4)cc3)NC(=O)[C@H](C(C)C)NC(=O)[C@@H]2C)O[C@@H](C)[C@@H]1O` (some centres not stated), the IC50 was determined as 246 nM.
Regarding `COc1ccc(C(=O)N[C@@H](Cc2ccccc2Cl)C(=O)Nc2ccc(C[C@@H]3CC(=O)N(C)C[C@H](C)C[C@@](C)(O)[C@H](O[C@@H]4O[C@H](C)C[C@H](N(C)C)[C@H]4O)[C@@H](C)[C@H](O[C@H]4C[C@@](C)(OC)[C@@H](O)[C@H](C)O4)[C@@H](C)C(=O)N[C@@H](C(C)C)C(=O)N3)cc2)cc1`, the IC50 came to 397 nM.
Next, `CO[C@]1(C)C[C@H](O[C@H]2[C@H](C)[C@@H](O[C@@H]3O[C@H](C)C[C@H](N(C)C)[C@H]3O)[C@](C)(O)C[C@@H](C)CN(C)C(=O)C[C@@H](Cc3ccc(NC(=O)[C@H](Cc4ccccc4Cl)NC(=O)COc4ccccc4)cc3)NC(=O)[C@H](C(C)C)NC(=O)[C@@H]2C)O[C@@H](C)[C@@H]1O`: 1090 nM; `CO[C@]1(C)C[C@H](O[C@H]2[C@H](C)[C@@H](O[C@@H]3O[C@H](C)C[C@H](N(C)C)[C@H]3O)[C@](C)(O)C[C@@H](C)CN(C)C(=O)C[C@@H](Cc3ccc(NC(=O)[C@H](Cc4ccccc4Cl)NC(=O)Nc4cccc(F)c4)cc3)NC(=O)[C@H](C(C)C)NC(=O)[C@@H]2C)O[C@@H](C)[C@@H]1O`: 547 nM.
Then `CO[C@]1(C)C[C@H](O[C@H]2[C@H](C)[C@@H](O[C@@H]3O[C@H](C)C[C@H](N(C)C)[C@H]3O)[C@](C)(O)C[C@@H](C)CN(C)C(=O)C[C@@H](Cc3ccc(NC(=O)[C@H](Cc4ccccc4Cl)NC(=O)Cc4ccccc4)cc3)NC(=O)[C@H](C3CC3)NC(=O)[C@@H]2C)O[C@@H](C)[C@@H]1O`, with 2620 nM; and `CO[C@]1(C)C[C@H](O[C@H]2[C@H](C)[C@@H](O[C@@H]3O[C@H](C)C[C@H](N(C)C)[C@H]3O)[C@](C)(O)C[C@@H](C)CN(C)C(=O)C[C@@H](Cc3ccc(NC(=O)[C@H](Cc4ccccc4Cl)NC(=O)Cc4ccccc4F)cc3)NC(=O)[C@H](C(C)C)NC(=O)[C@@H]2C)O[C@@H](C)[C@@H]1O`, with 198 nM.
Regarding `CO[C@]1(C)C[C@H](O[C@H]2[C@H](C)[C@@H](O[C@@H]3O[C@H](C)C[C@H](N(C)C)[C@H]3O)[C@](C)(O)C[C@@H](C)CN(C)C(=O)[C@@H](C(C)C)NC(=O)C[C@@H](Cc3ccc(NC(=O)[C@H](Cc4ccccc4Cl)NC(=O)Cc4ccccc4)cc3)NC(=O)[C@@H]2C)O[C@@H](C)[C@@H]1O`, the IC50 is above 30000 nM.
As for `CO[C@]1(C)C[C@H](O[C@H]2[C@H](C)[C@@H](O[C@@H]3O[C@H](C)C[C@H](N(C)C)[C@H]3O)[C@](C)(O)C[C@@H](C)CN(C)C(=O)[C@@H](Cc3ccc(NC(=O)[C@H](Cc4ccccc4Cl)NC(=O)Cc4ccccc4)cc3)NC(=O)C[C@@H](C(C)C)NC(=O)[C@@H]2C)O[C@@H](C)[C@@H]1O`, the IC50 was above 30000 nM.
For `CO[C@]1(C)C[C@H](O[C@H]2[C@H](C)[C@@H](O[C@@H]3O[C@H](C)C[C@H](N(C)C)[C@H]3O)[C@](C)(O)C[C@@H](C)CN(C)C(=O)C[C@@H](Cc3ccc(NC(=O)[C@H](Cc4ccccc4Cl)NC(=O)Cc4ccc(C#N)cc4)cc3)NC(=O)[C@H](C(C)C)NC(=O)[C@@H]2C)O[C@@H](C)[C@@H]1O`, the IC50 came out at 303 nM.

The record behind these values is ChEMBL document CHEMBL5033997, “Macrolide Inspired Macrocycles as Modulators of the IL-17A/IL-17RA Interaction” (J Med Chem, 2021).
